Tests used:
[1] = system: lymphocytes from the spleens of EAE mice; assay: Ex vivo BrdU proliferation response of EAE splenocytes to antigens and mitogens; format: cell-based; conditions: in vivo FTS 20 mg/kg/day i.p., GA 15 mg/kg/day s.c.
Description: Pooled single cell suspension of spleens were obtained on […] post-EAE induction and assayed in vitro for their response to antigens and mitogens ([…], lipopolysacharide—LPS, and concanavalin A—ConA) by a proliferation assay. The assay was carried out by plating in each microculture well 2×10^4 cells in 0.1 ml of proliferation medium containing optimal concentration of antigens as follows: 25 μg/ml MOG, 50 μg/ml MOG, 20 μg/ml LPS or 1 μg/ml of ConA. The experiments were performed in triplicate in 96-well, flat-bottom, microtiter plates (Costar, Cambridge, USA). Cultures were incubated for 72 h in humidified atmosphere of 95% air and 5% CO2 at 37° C. Cell proliferation was determined by Colorimetric Bromodeoxyuridine (BrdU) Cell Proliferation kit (Calbiochem, Darmstadt, Germany) following manufacturer's instructions. In brief, 20 μl of BrdU labeling solution diluted 1:2000 in culture medium were added to each well for the last 18 h of culture. After removing the medium, cells were fixed, and anti-BrdU peroxidase working solution was added to each well and incubated for one (1) hour at room temperature. Following several washes, substrate solution was added, color was developed, and absorbance was measured with a microplate reader at 450 nm. The stimulation index (S.I.) was calculated as follows: the mean absorbance of cells culture in the presence of antigen divided by the mean absorbance of cells in the absence of antigen.
Lymphocytes were obtained from the spleens of mice on day 16 post immunization with MOG and subjected to ex vivo BrdU incorporation proliferation assays. […] The cells, obtained from the four groups described above, were stimulated with various mitogens ex vivo for 48 h.

[2] = system: infiltration and demyelination in the spinal cords of EAE mice; assay: Histology of lumbar spinal cord (H&E, LFB); format: in vivo, C57bl/6 mice; conditions: day 16 post EAE-induction; FTS 20 mg/kg/day i.p., GA 15 mg/kg/day s.c.
Text: The lumbar part of the mice's spinal cord (n=8 mice for each group) was fixed in 4% paraformaldehyde (Electric Microscopy Science, PA, USA) and embedded in paraffin and cut in 4-μm-thick axial sections. Sections were stained with hematoxylin and eosin (H&E) and luxol fast blue (LFB) and then mounted in histomount medium (Invitrogen Corporation, CA, USA). Images were examined under a light microscope and captured with a NikonDS-5Mcamera (NikonInstech, Tokyo, Japan). Quantification of the inflammation and demyelination was conducted as previously described (Mi, et al., 2007). Briefly, to quantify inflammation H&E-stained nuclei were imaged, counted and percentage of stained cells per field were calculated. Similarly the percentage of regions with demyelination per field was estimated by counting the LFB-stained images. Imaging was aided by the use of Image-Pro Plus 5.1 software (MediaCybernetics, Silver, Spring, Md.).

[3] = system: EAE lesions and blood-brain barrier disruption in the spinal cord; assay: MR imaging of spinal cord (L1-S3) of EAE mice, T2-map and Gd-DTPA T1-weighted; format: in vivo, C57bl/6 mice; conditions: day 14 post EAE-induction; FTS 20 mg/kg/day i.p., GA 15 mg/kg/day s.c.; FIG. 2C
Description: The treatment effect was evaluated by MRI experiments which were conducted on day 14 after EAE-induction. […] During the MRI scanning, mice were anesthetized with isofluorane (3% for induction, 1-2% for maintenance) mixed with compressed air (1 l/min) delivered through a nasal mask. Once anesthetized, the animals were placed in a body-holder to assure reproducible positioning inside the magnet. Respiration rate was monitored and maintained throughout the experimental period at 60-80 breaths/min. MRI experiments were performed on a 7T Bruker scanner (70/30 USR Bruker BioSpec, Germany) equipped with a gradient coil system capable of producing pulse gradients of up to 400 mT/m in each of the three directions. […]
T2-map MRI was used to deliberate the EAE lesions (demyelination) in the mice's spinal cords. Lesion volume was calculated from the T2-map MR images using the MATLAB® image processing toolbox. […] From that value was then subtracted the value of a normal appearing parallel tissue in the same slice which was measured in the same way as described above. […]
The gadolinium enhancement obtained from T1-weighted MRI reflects the infusate distribution in the mice's blood-brain barrier within the spinal cord. Thus, the volume (in mm^3) of infusate distribution was calculated from the T1-weighted MRI. […] The volume in the regions of interest was counted and accumulated for each mouse.

EAE mice = assay: Clinical signs of MOG-induced EAE, late treatment from day 9; format: in vivo, C57bl/6 mice; conditions: for percent of the maximal response: score difference relative to control score 2.4
Description: Eight-week-old female C57bl/6 mice were purchased from Harlan. The mice were housed under standard conditions in top filtered cages. Mice were fed a regular diet and given acidified water without antibiotics.
Disease was induced by immunization with the peptide encompassing amino acids 35-55 of rat MOG synthesis (Anaspec, Fremont, Calif.). Mice were injected subcutaneously (s.c.) at the flank, with a 200 μl emulsion containing 300 μg of MOG in complete Freund's adjuvant (CFA) enriched with 500 μg Mycobacterium tuberculosis H37Ra (Difco Laboratories, Detroit, Mich.). Pertussis toxin (List biological laboratories, California, USA), […], was injected intra-peritoneally (i.p.) immediately after the MOG injection and then 48 h later. Mice were examined daily. EAE was scored as follows: 0, no abnormality; 1, mild limp tail weakness (floppy tail); 2, tail paralysis; 3, tail paralysis and hind leg paresis; 4, hind leg paralysis or mild forelimb weakness; 5, quadriplegia or moribund state; 6, death.
Briefly, FTS (as powder) was diluted in chloroform (35.8 mg/ml of FTS=0.1 M) and kept in aliquots. The content (280 μl) of one aliquot was evaporated under nitrogen and then dissolved in 40 μl absolute ethanol and 15 μl NaOH; 2.5 ml of PBS was subsequently added. Each mouse received 0.1 ml of this solution daily (0.4 mg/mouse which on a per unit weight basis equates to 20 mg/kg) intraperitoneally (i.p.), starting from day 9 of disease induction, just before the clinical onset of paralysis.
EAE was induced in C57bl/6 mice with MOG and drug treatment started on day 9 of disease induction. The animals were divided into four (4) groups.

phospho-Erk = assay: Western blotting of splenocyte lysates: phospho-Erk; format: in vivo, mice; conditions: FTS 20 mg/kg/day i.p., GA 15 mg/kg/day s.c.
Description: (§1) On day 16 post EAE-induction, the brains and splenocytes of the mice (n=4 per each group) were homogenized and their lysates were subjected to sodium dodecyl sulfate-olyacrylamide gel electrophoresis followed by western blotting, as described (Goldberg and Kloog, 2006), with one of the following antibodies: pan-RAS (Ab-3; Calbiochem, San Diego, Calif.), anti-CD3 Ab (AbD serotec, Oxford, UK), anti-ERK (Santa Cruz Biotechnology, CA. USA), anti phospho-ERK (Sigma, USA), anti-tubulin Ab and anti-Foxp3 Ab (eBioScience, San Diego, Calif.). Protein bands were visualized by enhanced chemiluminescence (ECL) kit (Amersham Pharmacia Biotech, Arlington Heights, Ill.) and quantified by densitometry with Image EZQuant-Gel software (Copyright©2005, EZQuant Ltd). Lysates were used to determine Ras-GTP by the glutathione S-transferase (GST)-Ras-binding domain pulldown assay, and this was followed by western blotting with anti pan-Ras Ab.

Foxp3 = assay: Western blotting of splenocyte lysates: Foxp3; format: in vivo, mice; conditions: day 17 post EAE-induction; FTS 20 mg/kg/day i.p., GA 15 mg/kg/day s.c.
Description: as §1

Ras = assay: Western blotting of splenocyte lysates: Ras; format: in vivo, mice; conditions: FTS 20 mg/kg/day i.p., GA 15 mg/kg/day s.c.
Description: as §1

[4] = 0-6 scale, FTS 20 mg/kg/day i.p., GA 100 mg/kg/day s.c., daily from day 9, FIG. 1A
[5] = Example II: 0-6 scale, FTS 60 mg/kg/day p.o., GA 15 mg/kg/day s.c., FIG. 7A
[6] = Example II: FTS 60 mg/kg/day p.o., GA 15 mg/kg/day s.c., daily from day 9
[7] = FTS 20 mg/kg/day i.p., GA 15 mg/kg/day s.c.
[8] = FTS 20 mg/kg/day i.p., GA 15 mg/kg/day s.c., daily from day 9, four experiments
[9] = FTS 20 mg/kg/day i.p., GA 100 mg/kg/day s.c., daily from day 9, three experiments

Molecule: CC(C)=CCC/C(C)=C/CC/C(C)=C/CSc1ccccc1C(=O)O [FTS, S-trans,trans-farnesylthiosalicylic acid]
- decrease in lymphocyte proliferation vs. control ([1]; stimulated with 25 μg/ml MOG): 17.85%±5.34%
- decrease in lymphocyte proliferation vs. control ([1]; stimulated with 50 μg/ml MOG): 29.9%±9.18%
- decrease in regions of demyelination (LFB) vs. control [2]: 59.18±10.6%
- reduction of regions with inflammatory infiltrates (H&E nuclei counts) vs. control [2]: 28.44%±11.2%
- decrease in total volume of T2-map lesions per mouse vs. control [3]: 30.1%±7%
- maximal average clinical score (EAE mice; 0-6 scale, FTS 20 mg/kg/day i.p., GA 15 mg/kg/day s.c., daily from day 9, FIG. 1B): 2.15±0.45
- maximal average clinical score (EAE mice; [4]): 1.07±0.6
- maximal average clinical score (EAE mice; [5]): 1±0.33
- animals that developed clinical signs of EAE (EAE mice; [6]): 60%
- maximal average clinical score (EAE mice; Example III: 0-6 scale, FTS 40 mg/kg/day s.c. (dissolved in GA in the combination), GA 15 mg/kg/day s.c., FIG. 7B): 1.72±0.45
- animals that developed clinical signs of EAE (EAE mice; Example III: FTS 40 mg/kg/day s.c. (dissolved in GA in the combination), GA 15 mg/kg/day s.c., daily from day 9): 90%
- clinical score as control score (2.4) minus treated score (EAE mice; [7]): 0.25±0.11
- animals that developed clinical signs of EAE (EAE mice; [8]): 82.5%
- animals that developed clinical signs of EAE (EAE mice; [9]): 60.7%
- percent of the maximal response (EAE mice; [7]): 25%
- decrease in phospho-Erk level in splenocytes vs. GA alone (phospho-Erk): 51.38%±5.6%
- decrease in phospho-Erk level in splenocytes vs. control (phospho-Erk): 50.18%±9.1%
- increase of Foxp3 level in splenocytes vs. control (Foxp3): No significant elevation

Molecule: L-glutamic acid polymer with L-alanine, L-lysine and L-tyrosine, acetate (salt) [GA]
- decrease in Ras level in splenocytes vs. control (Ras): does not reduce significantly
- decrease in lymphocyte proliferation vs. control ([1]; stimulated with 25 μg/ml MOG): 43.19%±6.35%
- decrease in lymphocyte proliferation vs. control ([1]; stimulated with 50 μg/ml MOG): 41.22%±6.12%
- decrease in regions of demyelination (LFB) vs. control [2]: 48.97%±6.78%
- reduction of regions with inflammatory infiltrates (H&E nuclei counts) vs. control [2]: 33.12%±6.98%
- maximal average clinical score (EAE mice; [4]): 1.4±0.43
- maximal average clinical score (EAE mice; [5]): 1.3±0.213
- animals that developed clinical signs of EAE (EAE mice; [6]): 70%
- clinical score as control score (2.4) minus treated score (EAE mice; [7]): 0.02±0.05
- animals that developed clinical signs of EAE (EAE mice; [8]): 77.5%
- animals that developed clinical signs of EAE (EAE mice; [9]): 70.3%
- percent of the maximal response (EAE mice; [7]): 2%
- decrease in phospho-Erk level in splenocytes vs. control (phospho-Erk): does not reduce significantly
- increase of Foxp3 level in splenocytes vs. control (Foxp3): No significant elevation
